2 compounds from ChEMBL document CHEMBL1151966, “Okundoperoxide, a bicyclic cyclofarnesylsesquiterpene endoperoxide from Scleria striatinux with antiplasmodial activity” (J Nat Prod, 2009) can be followed below.

Test [1] relates to Plasmodium falciparum. Briefly: Antiplasmodial activity after 24 hrs against chloroquine,pyrimethamine-resistant Plasmodium falciparum K1 infected human erythrocytes by [3H]hypoxanthine uptake. In kind it is functional, organism-based.
The nature of test [2]: Cytotoxicity against human erythrocytes. In kind it is cell-based. The following applies: Erythrocyte.
In test [3] the test system is Plasmodium falciparum. Briefly: Antiplasmodial activity after 24 hrs against drug-sensitive Plasmodium falciparum NF54 infected human erythrocytes by [3H]hypoxanthine uptake. The test is classed as functional, organism-based.
Test [4] concerns Plasmodium falciparum. Briefly: Antiplasmodial activity after 24 hrs against chloroquine-resistant Plasmodium falciparum W2 infected human erythrocytes by [3H]hypoxanthine uptake. In kind it is functional, organism-based.
For test [5], the system named is Plasmodium falciparum. Kind of test: Antiplasmodial activity after 24 hrs against chloroquine-sensitive Plasmodium falciparum D6 infected human erythrocytes by [3H]hypoxanthine uptake. The test is classed as functional, organism-based.

Converted amounts (≈) assume the structure as drawn.

Turning to `C/C(=C\CO)[C@H]1C[C@H]2C(C)(C)C(=O)C=C[C@]2(C)OO1` (relative stereo) [OKUNDOPEROXIDE], the IC50 amounted to 1.5 µg/mL (≈ 5.62 µM) in test [1]; 22.7 µg/mL (≈ 85.2 µM) in test [2]; 1.31 µg/mL (≈ 4.91 µM) in test [3]; 0.47 µg/mL (≈ 1.76 µM) in test [4]; 0.483 µg/mL (≈ 1.81 µM) in test [5].
As for `COc1cc([C@@H]2c3cc4c(cc3[C@H](O)[C@H]3COC(=O)[C@H]23)OCO4)cc(OC)c1OC` [PODOFILOX], it took 0.007 µg/mL (≈ 0.0169 µM) to reach half-maximal inhibition in test [2] (IC50).

For orientation: IC50 means the midpoint of a concentration-inhibition curve. Lower therefore signals greater potency in that assay.
